Measurements published in patent US20050009776A1, “Method of treating atrial fibrillation or atrial flutter” (Aderis Pharmaceuticals, Inc., priority 2003, published 2005).

Assay: Example 2: safety (adverse events, blood pressure, clinical laboratory values)
Assay type: in vivo, human
Conditions: for Diastolic BP Change from Baseline Post-treatment / Diastolic BP Change from Baseline Treatment / Systolic BP Change from Baseline Post-treatment / Systolic BP Change from Baseline Treatment: mean ± SD
Description: Each patient received 1 of 6 doses of DTI-0009 (0.25, 1.0, 2.5, 4.0, 10.0, or 25.0 μg/kg) diluted in normal saline or normal saline only (control). Study drug was administered as a 30-minute i.v. infusion at a rate of 1 mL/minute. Patients were enrolled in sequential dose groups, beginning with the lowest active dose group and continuing in increasing dose order; the final group received normal saline. The decision to proceed to the next highest dose group was based on the safety response in the previous dose group.
Electrophysiologic (EP), electrocardiogram (ECG), blood pressure measurements, and blood collection for clinical laboratory measurements were performed at baseline (−10 to 0 minutes), during treatment (between 20 and 30 minutes), and at 10 minutes post-treatment.
ECG measurements included PR interval, QRS complex duration, and QT interval. Efficacy was based on changes in EP and ECG parameters from baseline to the treatment period and to post treatment. Safety was based on the incidence of adverse events, blood pressure measurements, and clinical laboratory values.
The incidence of adverse events, blood pressure measurements, and clinical laboratory results were summarized by dose group. Adverse events were coded using the medical dictionary for regulatory activities (MedDRA version 3.0). Safety analyses included all patients who received any duration of study drug infusion.

CCNC(=O)[C@H]1O[C@@H](n2cnc3c(NC4CCCC4)ncnc32)[C@H](O)[C@@H]1O [DTI-0009, N^6-cyclopentyl-5′-(N-ethyl)carboxamidoadenosine]
Adverse Events Related to Study Drug: Cardiac Disorders (all) (0.25 μg/kg (n = 10)): 0 | Adverse Events Related to Study Drug: General Disorders (all) (0.25 μg/kg (n = 10)): 0 | Incidence of Adverse Events Related to Study Drug (0.25 μg/kg (n = 10)): 0 | Incidence of Adverse Events: Any Adverse Event (0.25 μg/kg (n = 10)): 3 (30%) | Incidence of Adverse Events: Atrial fibrillation (0.25 μg/kg (n = 10)): 1 (10%) | Incidence of Adverse Events: Atrial flutter (0.25 μg/kg (n = 10)): 1 (10%) | Incidence of Adverse Events: Atrial tachycardia (0.25 μg/kg (n = 10)): 0 | Incidence of Adverse Events: Bradycardia (0.25 μg/kg (n = 10)): 0 | Incidence of Adverse Events: Cardiac Disorders (0.25 μg/kg (n = 10)): 2 (20%) | Incidence of Adverse Events: Chest pain/tightness (0.25 μg/kg (n = 10)): 0 | Incidence of Adverse Events: Conduction disorders (0.25 μg/kg (n = 10)): 0 | Incidence of Adverse Events: General Disorders (0.25 μg/kg (n = 10)): 0 | Incidence of Adverse Events: Groin pain/swelling (0.25 μg/kg (n = 10)): 0 | Diastolic BP Change from Baseline Post-treatment (0.25 μg/kg): 5.2 ± 9.7 mmHg | Diastolic BP Change from Baseline Treatment (0.25 μg/kg): 2.5 ± 8.1 mmHg | Systolic BP Change from Baseline Post-treatment (0.25 μg/kg): 5.8 ± 9.5 mmHg | Systolic BP Change from Baseline Treatment (0.25 μg/kg): 8.8 ± 8.2 mmHg | Adverse Events Related to Study Drug: Cardiac Disorders (all) (1.0 μg/kg (n = 10)): 1 (10%) | Adverse Events Related to Study Drug: General Disorders (all) (1.0 μg/kg (n = 10)): 0 | Incidence of Adverse Events Related to Study Drug (1.0 μg/kg (n = 10)): 1 (10%) | Incidence of Adverse Events: Any Adverse Event (1.0 μg/kg (n = 10)): 6 (60%) | Incidence of Adverse Events: Atrial fibrillation (1.0 μg/kg (n = 10)): 0 | Incidence of Adverse Events: Atrial flutter (1.0 μg/kg (n = 10)): 1 (10%) | Incidence of Adverse Events: Atrial tachycardia (1.0 μg/kg (n = 10)): 0 | Incidence of Adverse Events: Bradycardia (1.0 μg/kg (n = 10)): 0 | Incidence of Adverse Events: Cardiac Disorders (1.0 μg/kg (n = 10)): 1 (10%) | Incidence of Adverse Events: Chest pain/tightness (1.0 μg/kg (n = 10)): 0 | Incidence of Adverse Events: Conduction disorders (1.0 μg/kg (n = 10)): 0 | Incidence of Adverse Events: General Disorders (1.0 μg/kg (n = 10)): 1 (10%) | Incidence of Adverse Events: Groin pain/swelling (1.0 μg/kg (n = 10)): 1 (10%) | Diastolic BP Change from Baseline Post-treatment (1.0 μg/kg): 1.0 ± 5.6 mmHg | Diastolic BP Change from Baseline Treatment (1.0 μg/kg): 3.3 ± 9.3 mmHg | Systolic BP Change from Baseline Post-treatment (1.0 μg/kg): 1.4 ± 21.5 mmHg | Systolic BP Change from Baseline Treatment (1.0 μg/kg): −0.1 ± 18.0 mmHg | Adverse Events Related to Study Drug: Cardiac Disorders (all) (2.5 μg/kg (n = 8)): 0 | Adverse Events Related to Study Drug: General Disorders (all) (2.5 μg/kg (n = 8)): 0 | Incidence of Adverse Events Related to Study Drug (2.5 μg/kg (n = 8)): 0 | Incidence of Adverse Events: Any Adverse Event (2.5 μg/kg (n = 8)): 3 (38%) | Incidence of Adverse Events: Atrial fibrillation (2.5 μg/kg (n = 8)): 1 (13%) | Incidence of Adverse Events: Atrial flutter (2.5 μg/kg (n = 8)): 0 | Incidence of Adverse Events: Atrial tachycardia (2.5 μg/kg (n = 8)): 0 | Incidence of Adverse Events: Bradycardia (2.5 μg/kg (n = 8)): 0 | Incidence of Adverse Events: Cardiac Disorders (2.5 μg/kg (n = 8)): 1 (13%) | Incidence of Adverse Events: Chest pain/tightness (2.5 μg/kg (n = 8)): 1 (13%) | Incidence of Adverse Events: Conduction disorders (2.5 μg/kg (n = 8)): 0 | Incidence of Adverse Events: General Disorders (2.5 μg/kg (n = 8)): 2 (25%) | Incidence of Adverse Events: Groin pain/swelling (2.5 μg/kg (n = 8)): 0 | Diastolic BP Change from Baseline Post-treatment (2.5 μg/kg): −1.6 ± 9.5 mmHg | Diastolic BP Change from Baseline Treatment (2.5 μg/kg): 0.0 ± 8.4 mmHg | Systolic BP Change from Baseline Post-treatment (2.5 μg/kg): 0.6 ± 9.0 mmHg | Systolic BP Change from Baseline Treatment (2.5 μg/kg): 1.0 ± 6.2 mmHg | Adverse Events Related to Study Drug: Cardiac Disorders (all) (4.0 μg/kg (n = 10)): 2 (20%) | Adverse Events Related to Study Drug: General Disorders (all) (4.0 μg/kg (n = 10)): 0 | Incidence of Adverse Events Related to Study Drug (4.0 μg/kg (n = 10)): 2 (20%) | Incidence of Adverse Events: Any Adverse Event (4.0 μg/kg (n = 10)): 2 (20%) | Incidence of Adverse Events: Atrial fibrillation (4.0 μg/kg (n = 10)): 2 (20%) | Incidence of Adverse Events: Atrial flutter (4.0 μg/kg (n = 10)): 0 | Incidence of Adverse Events: Atrial tachycardia (4.0 μg/kg (n = 10)): 0 | Incidence of Adverse Events: Bradycardia (4.0 μg/kg (n = 10)): 0 | Incidence of Adverse Events: Cardiac Disorders (4.0 μg/kg (n = 10)): 2 (20%) | Incidence of Adverse Events: Chest pain/tightness (4.0 μg/kg (n = 10)): 0 | Incidence of Adverse Events: Conduction disorders (4.0 μg/kg (n = 10)): 0
